Measurements published in patent US20050112573A1, “Method of detecting toxic substance” (priority 2001, published 2005).

System: yeast genes (level of expressed mRNA)
Assay: DNA chip analysis of expressed mRNA of yeast genes after 2 h culture with a toxic chemical substance
Type: cell-based, Saccharomyces cerevisiae S288C
Summary of the method: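 Values are treated-to-control fluorescence ratios from a whole-yeast-genome DNA chip (65° C, over 12 h hybridization) using Cy3/Cy5-labelled cDNA from mRNA. Log-phase S288C cells in YPD at 25° C were exposed 2 h to a toxicant at sublethal, growth-inhibiting concentration.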

With CdCl2 [(2)] the “The level of expressed mRNA in the presence of chemical substance/” value (yeast gene YAL053W, ratio to control without chemical) was 0.9, the “The level of expressed mRNA in the presence of chemical substance/The level of expressed mRNA in the absence of chemical substance” value (yeast gene YAR010C) was 1.2 and the “The level of expressed mRNA in the presence of chemical substance/The level of expressed mRNA in the absence of chemical substance” value (yeast gene YBL005W-A) was 0.9. The “The level of expressed mRNA in the presence of chemical substance/The level of expressed mRNA in the absence of chemical substance” value (yeast gene YBL041W) was 1.4, the “The level of expressed mRNA in the presence of chemical substance/The level of expressed mRNA in the absence of chemical substance” value (yeast gene YBL043W) was 1.2 and the “The level of expressed mRNA in the presence of chemical substance/” value (yeast gene YBL048W, ratio to control without chemical substance, 2 h culture) was 7.9. The “The level of expressed mRNA in the presence of chemical substance/The level of expressed mRNA in the absence of chemical substance” value (yeast gene YBL078C) was 2.7, the “The level of expressed mRNA in the presence of chemical substance/” value (yeast gene YBL107C, ratio to control without chemical substance, 2 h culture) was 1.1 and the “The level of expressed mRNA in the presence of chemical substance/in the absence of chemical substance” value (yeast gene YBR036C) was 1.7. The “The level of expressed mRNA in the presence of chemical substance/The level of expressed mRNA in the absence of chemical substance” value (yeast gene YBR214W) was 2.1, the “The level of expressed mRNA in the presence of chemical substance/in the absence of chemical substance” value (yeast gene YBR298C) was 1.0 and the “The level of expressed mRNA in the presence of chemical substance/The level of expressed mRNA in the absence of chemical substance” value (yeast gene YCL020W) was 2.5. The “The level of expressed mRNA in the presence of chemical substance/The level of expressed mRNA in the absence of chemical substance” value (yeast gene YCL027W) was 2.0, the “The level of expressed mRNA in the presence of chemical substance/The level of expressed mRNA in the absence of chemical substance” value (yeast gene YCR004C) was 1.0 and the “The level of expressed mRNA in the presence of chemical substance/The level of expressed mRNA in the absence of chemical substance” value (yeast gene YCR071C) was 0.7. The “The level of expressed mRNA in the presence of chemical substance/The level of expressed mRNA in the absence of chemical substance” value (yeast gene YCR088W) was 1.1, the “The level of expressed mRNA in the presence of chemical substance/The level of expressed mRNA in the absence of chemical substance” value (yeast gene YDL008W) was 1.0 and the “The level of expressed mRNA in the presence of chemical substance/” value (yeast gene YDL072C, ratio to control without chemical) was 1.1. The “The level of expressed mRNA in the presence of chemical substance/in the absence of chemical substance” value (yeast gene YDL078C) was 1.1, the “The level of expressed mRNA in the presence of chemical substance/” value (yeast gene YDL204W, ratio to control without chemical) was 1.9 and the “The level of expressed mRNA in the presence of chemical substance/in the absence of chemical substance” value (yeast gene YDL215C) was 1.5. The “The level of expressed mRNA in the presence of chemical substance/” value (yeast gene YDL222C, ratio to control without chemical) was 1.1, the “The level of expressed mRNA in the presence of chemical substance/The level of expressed mRNA in the absence of chemical substance” value (yeast gene YDL238C) was 1.0 and the “The level of expressed mRNA in the presence of chemical substance/The level of expressed mRNA in the absence of chemical substance” value (yeast gene YDR055W) was 2.1. For the same substance, the “The level of expressed mRNA in the presence of chemical substance/The level of expressed mRNA in the absence of chemical substance” value (yeast gene YDR084C) was 0.9, the “The level of expressed mRNA in the presence of chemical substance/The level of expressed mRNA in the absence of chemical substance” value (yeast gene YDR085C) was 1.8 and the “The level of expressed mRNA in the presence of chemical substance/The level of expressed mRNA in the absence of chemical substance” value (yeast gene YDR104C) was 1.1. The “The level of expressed mRNA in the presence of chemical substance/The level of expressed mRNA in the absence of chemical substance” value (yeast gene YDR115W) was 0.9, the “The level of expressed mRNA in the presence of chemical substance/The level of expressed mRNA in the absence of chemical substance” value (yeast gene YDR259C) was 1.0 and the “The level of expressed mRNA in the presence of chemical substance/in the absence of chemical substance” value (yeast gene YDR297W) was 0.8. For the same substance, the “The level of expressed mRNA in the presence of chemical substance/The level of expressed mRNA in the absence of chemical substance” value (yeast gene YDR315C) was 1.4, the “The level of expressed mRNA in the presence of chemical substance/” value (yeast gene YDR330W, ratio to control without chemical substance, 2 h culture) was 1.5 and the “The level of expressed mRNA in the presence of chemical substance/The level of expressed mRNA in the absence of chemical substance” value (yeast gene YDR358W) was 1.1. For the same substance, the “The level of expressed mRNA in the presence of chemical substance/in the absence of chemical substance” value (yeast gene YDR387C) was 0.9, the “The level of expressed mRNA in the presence of chemical substance/The level of expressed mRNA in the absence of chemical substance” value (yeast gene YDR388W) was 0.7 and the “The level of expressed mRNA in the presence of chemical substance/” value (yeast gene YDR411C, ratio to control without chemical substance, 2 h culture) was 2.8. For the same substance, the “The level of expressed mRNA in the presence of chemical substance/The level of expressed mRNA in the absence of chemical substance” value (yeast gene YDR432W) was 0.8, the “The level of expressed mRNA in the presence of chemical substance/The level of expressed mRNA in the absence of chemical substance” value (yeast gene YDR481C) was 2.3 and the “The level of expressed mRNA in the presence of chemical substance/The level of expressed mRNA in the absence of chemical substance” value (yeast gene YDR510W) was 1.3. The “The level of expressed mRNA in the presence of chemical substance/” value (yeast gene YDR511W, ratio to control without chemical substance, 2 h culture) was 1.7, the “The level of expressed mRNA in the presence of chemical substance/” value (yeast gene YDR545W, ratio to control without chemical substance, 2 h culture) was 1.2 and the “The level of expressed mRNA in the presence of chemical substance/” value (yeast gene YEL001C, ratio to control without chemical) was 1.0. For the same substance, the “The level of expressed mRNA in the presence of chemical substance/The level of expressed mRNA in the absence of chemical substance” value (yeast gene YEL042W) was 0.9, the “The level of expressed mRNA in the presence of chemical substance/The level of expressed mRNA in the absence of chemical substance” value (yeast gene YEL066W) was 2.9 and the “The level of expressed mRNA in the presence of chemical substance/” value (yeast gene YER004W, ratio to control without chemical substance, 2 h culture) was 1.5. For the same substance, the “The level of expressed mRNA in the presence of chemical substance/” value (yeast gene YER035W, ratio to control without chemical substance, 2 h culture) was 1.6, the “The level of expressed mRNA in the presence of chemical substance/The level of expressed mRNA in the absence of chemical substance” value (yeast gene YER039C) was 1.2 and the “The level of expressed mRNA in the presence of chemical substance/” value (yeast gene YER079W, ratio to control without chemical substance, 2 h culture) was 1.6. For the same substance, the “The level of expressed mRNA in the presence of chemical substance/” value (yeast gene YER106W, ratio to control without chemical) was 0.7, the “The level of expressed mRNA in the presence of chemical substance/The level of expressed mRNA in the absence of chemical substance” value (yeast gene YER107C) was 0.5 and the “The level of expressed mRNA in the presence of chemical substance/The level of expressed mRNA in the absence of chemical substance” value (yeast gene YER130C) was 1.6. For the same substance, the “The level of expressed mRNA in the presence of chemical substance/” value (yeast gene YER158C, ratio to control without chemical substance, 2 h culture) was 0.9, the “The level of expressed mRNA in the presence of chemical substance/” value (yeast gene YER163C, ratio to control without chemical substance, 2 h culture) was 2.4 and the “The level of expressed mRNA in the presence of chemical substance/” value (yeast gene YER175C, ratio to control without chemical substance, 2 h culture) was 1.2. For the same substance, the “The level of expressed mRNA in the presence of chemical substance/” value (yeast gene YFL006W, ratio to control without chemical substance, 2 h culture) was 2.8.
